# Measured values from ChEMBL document CHEMBL5465560, “Selectivity Literature for EUbOPEN Chemogenomic Library” (2024).
# Experiments:
# [1] = biological target: T1, Tyrosine-protein kinase TXK (Homo sapiens) (UniProt P42681); assay: Selectivity interaction (ProQinase) EUB0000171b TXK
# T1 sequence (whole entry): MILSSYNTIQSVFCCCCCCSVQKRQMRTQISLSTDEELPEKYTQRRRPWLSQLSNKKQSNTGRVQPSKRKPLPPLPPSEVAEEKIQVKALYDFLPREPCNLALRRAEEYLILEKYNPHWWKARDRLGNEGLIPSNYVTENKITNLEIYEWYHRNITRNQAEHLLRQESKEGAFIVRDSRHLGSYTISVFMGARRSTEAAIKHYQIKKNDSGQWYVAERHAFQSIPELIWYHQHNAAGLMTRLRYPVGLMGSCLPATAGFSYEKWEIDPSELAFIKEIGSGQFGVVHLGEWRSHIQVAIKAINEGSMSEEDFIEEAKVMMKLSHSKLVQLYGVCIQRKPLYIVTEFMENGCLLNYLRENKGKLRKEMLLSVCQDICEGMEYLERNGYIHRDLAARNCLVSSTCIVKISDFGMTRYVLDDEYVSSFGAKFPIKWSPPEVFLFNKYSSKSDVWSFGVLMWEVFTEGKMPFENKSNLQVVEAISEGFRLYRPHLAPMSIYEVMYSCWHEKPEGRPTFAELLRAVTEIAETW
# [2] = biological target: Ephrin type-A receptor 7 (Homo sapiens) (UniProt Q15375); conditions: at 10 µM
# Sequence of Ephrin type-A receptor 7 (Homo sapiens) (Q15375 28-998 limits assumed): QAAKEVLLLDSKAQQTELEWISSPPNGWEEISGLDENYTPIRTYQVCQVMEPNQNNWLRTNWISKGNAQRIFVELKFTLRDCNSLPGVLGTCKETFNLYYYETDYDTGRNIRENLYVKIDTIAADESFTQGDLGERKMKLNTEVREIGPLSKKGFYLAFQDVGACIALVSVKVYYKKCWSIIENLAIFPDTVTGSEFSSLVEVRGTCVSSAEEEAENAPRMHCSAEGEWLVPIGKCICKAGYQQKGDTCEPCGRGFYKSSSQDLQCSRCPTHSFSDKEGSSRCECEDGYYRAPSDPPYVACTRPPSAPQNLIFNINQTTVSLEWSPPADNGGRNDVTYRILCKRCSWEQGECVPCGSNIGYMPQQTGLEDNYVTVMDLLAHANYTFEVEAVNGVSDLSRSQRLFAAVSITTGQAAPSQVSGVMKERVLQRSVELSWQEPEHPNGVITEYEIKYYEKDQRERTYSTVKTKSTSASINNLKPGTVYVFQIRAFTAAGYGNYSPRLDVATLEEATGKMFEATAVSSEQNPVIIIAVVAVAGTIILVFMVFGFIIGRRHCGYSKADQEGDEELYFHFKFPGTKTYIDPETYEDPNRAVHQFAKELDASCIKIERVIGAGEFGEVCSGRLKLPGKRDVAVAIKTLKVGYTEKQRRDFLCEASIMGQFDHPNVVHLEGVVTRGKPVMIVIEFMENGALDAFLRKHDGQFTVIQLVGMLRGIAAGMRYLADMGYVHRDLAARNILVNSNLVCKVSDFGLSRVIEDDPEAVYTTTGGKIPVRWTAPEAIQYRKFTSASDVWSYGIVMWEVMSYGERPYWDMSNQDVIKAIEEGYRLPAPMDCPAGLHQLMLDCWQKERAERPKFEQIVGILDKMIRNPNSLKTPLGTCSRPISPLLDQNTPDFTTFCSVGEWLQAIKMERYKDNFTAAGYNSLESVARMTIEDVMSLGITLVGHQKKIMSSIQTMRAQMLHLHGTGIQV
# [3] = biological target: Ephrin type-A receptor 5 (Homo sapiens) (UniProt P54756); assay: Selectivity interaction (Kinase panel (Z-LYTE Assay)) EUB0001632a EPHA5; conditions: at 10 µM
# [4] = biological target: T2, Mitogen-activated protein kinase kinase kinase 15 (Homo sapiens) (UniProt Q6ZN16); assay: Selectivity interaction (ActivX KiNativ screen (kinase selectivity in THP-1 cell lysates)) EUB0000639a MAP3K15; type: subcellular; conditions: lysate
# T2 sequence (whole entry): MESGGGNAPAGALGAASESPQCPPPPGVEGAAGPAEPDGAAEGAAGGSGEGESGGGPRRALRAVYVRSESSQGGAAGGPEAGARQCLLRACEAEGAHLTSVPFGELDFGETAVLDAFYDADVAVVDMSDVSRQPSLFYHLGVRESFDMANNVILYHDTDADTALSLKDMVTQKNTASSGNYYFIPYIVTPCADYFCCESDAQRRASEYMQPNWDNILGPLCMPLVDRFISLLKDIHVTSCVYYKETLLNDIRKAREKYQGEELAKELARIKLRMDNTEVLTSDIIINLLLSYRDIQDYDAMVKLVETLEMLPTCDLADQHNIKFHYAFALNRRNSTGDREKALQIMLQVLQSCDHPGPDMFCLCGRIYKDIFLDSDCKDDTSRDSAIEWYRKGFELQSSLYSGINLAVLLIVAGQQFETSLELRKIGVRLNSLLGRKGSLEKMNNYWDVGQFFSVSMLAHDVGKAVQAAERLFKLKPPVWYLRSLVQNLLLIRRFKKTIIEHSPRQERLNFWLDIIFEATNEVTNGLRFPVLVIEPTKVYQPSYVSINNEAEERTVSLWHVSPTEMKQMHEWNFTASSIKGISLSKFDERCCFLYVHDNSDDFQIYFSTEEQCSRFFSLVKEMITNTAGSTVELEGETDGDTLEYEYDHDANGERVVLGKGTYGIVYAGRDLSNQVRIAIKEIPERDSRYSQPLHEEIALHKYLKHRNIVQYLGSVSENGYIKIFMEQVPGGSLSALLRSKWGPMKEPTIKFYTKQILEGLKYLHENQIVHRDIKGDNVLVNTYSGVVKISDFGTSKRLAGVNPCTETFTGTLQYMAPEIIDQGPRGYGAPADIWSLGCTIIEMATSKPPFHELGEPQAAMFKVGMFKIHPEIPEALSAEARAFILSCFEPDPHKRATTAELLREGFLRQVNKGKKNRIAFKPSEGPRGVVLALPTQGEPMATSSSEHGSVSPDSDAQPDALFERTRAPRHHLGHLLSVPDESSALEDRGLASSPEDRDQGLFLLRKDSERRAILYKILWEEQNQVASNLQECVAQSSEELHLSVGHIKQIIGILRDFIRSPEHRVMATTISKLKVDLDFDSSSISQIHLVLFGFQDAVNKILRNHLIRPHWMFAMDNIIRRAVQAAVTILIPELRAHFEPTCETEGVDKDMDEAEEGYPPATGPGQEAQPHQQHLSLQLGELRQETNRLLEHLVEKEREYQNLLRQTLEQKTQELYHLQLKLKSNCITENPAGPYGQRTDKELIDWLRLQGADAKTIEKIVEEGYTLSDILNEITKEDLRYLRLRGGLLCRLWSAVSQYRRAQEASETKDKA
# [5] = biological target: Dual specificity mitogen-activated protein kinase kinase 2 (Homo sapiens) (UniProt P36507); assay: Selectivity interaction (ActivX KiNativ screen (kinase selectivity in THP-1 cell lysates)) EUB0000639a MAP2K2; type: subcellular; conditions: lysate, at 0.2 µM
# Sequence of Dual specificity mitogen-activated protein kinase kinase 2 (Homo sapiens) (P36507 whole entry): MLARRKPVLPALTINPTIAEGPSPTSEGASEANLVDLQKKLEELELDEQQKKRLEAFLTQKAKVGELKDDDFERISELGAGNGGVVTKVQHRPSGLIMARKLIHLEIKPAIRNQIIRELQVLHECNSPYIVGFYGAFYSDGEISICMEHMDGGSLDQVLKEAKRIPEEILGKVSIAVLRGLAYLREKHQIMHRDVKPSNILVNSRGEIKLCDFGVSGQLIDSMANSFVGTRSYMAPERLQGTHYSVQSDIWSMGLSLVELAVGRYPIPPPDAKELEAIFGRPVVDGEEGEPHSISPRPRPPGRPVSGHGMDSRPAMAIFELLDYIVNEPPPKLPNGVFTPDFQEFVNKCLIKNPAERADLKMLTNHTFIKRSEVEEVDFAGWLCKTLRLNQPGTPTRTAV
# [6] = biological target: Cyclin-dependent kinase 3 (Homo sapiens) (UniProt Q00526); assay: Selectivity interaction (KinomeScan (DiscoverX)) EUB0000607a CDK3; conditions: at 10 µM
# Sequence of Cyclin-dependent kinase 3 (Homo sapiens) (Q00526 whole entry, looked up): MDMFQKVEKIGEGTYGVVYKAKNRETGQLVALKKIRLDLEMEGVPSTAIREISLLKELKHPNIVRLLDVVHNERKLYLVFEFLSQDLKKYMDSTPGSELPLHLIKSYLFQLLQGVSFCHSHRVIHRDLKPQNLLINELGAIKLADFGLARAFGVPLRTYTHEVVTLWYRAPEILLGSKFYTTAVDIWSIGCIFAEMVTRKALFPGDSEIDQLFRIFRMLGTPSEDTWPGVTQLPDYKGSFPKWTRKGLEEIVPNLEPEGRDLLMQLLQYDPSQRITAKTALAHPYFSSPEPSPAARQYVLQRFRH
# [7] = test system: Tyrosine-protein kinase ABL1 (Homo sapiens), P00519 [F317I]; assay: Selectivity interaction (KinomeScan (DiscoverX)) EUB0001049a ABL1; conditions: at 1 µM
# Sequence of Tyrosine-protein kinase ABL1 (Homo sapiens), P00519 [F317I] (P00519 whole entry F317I): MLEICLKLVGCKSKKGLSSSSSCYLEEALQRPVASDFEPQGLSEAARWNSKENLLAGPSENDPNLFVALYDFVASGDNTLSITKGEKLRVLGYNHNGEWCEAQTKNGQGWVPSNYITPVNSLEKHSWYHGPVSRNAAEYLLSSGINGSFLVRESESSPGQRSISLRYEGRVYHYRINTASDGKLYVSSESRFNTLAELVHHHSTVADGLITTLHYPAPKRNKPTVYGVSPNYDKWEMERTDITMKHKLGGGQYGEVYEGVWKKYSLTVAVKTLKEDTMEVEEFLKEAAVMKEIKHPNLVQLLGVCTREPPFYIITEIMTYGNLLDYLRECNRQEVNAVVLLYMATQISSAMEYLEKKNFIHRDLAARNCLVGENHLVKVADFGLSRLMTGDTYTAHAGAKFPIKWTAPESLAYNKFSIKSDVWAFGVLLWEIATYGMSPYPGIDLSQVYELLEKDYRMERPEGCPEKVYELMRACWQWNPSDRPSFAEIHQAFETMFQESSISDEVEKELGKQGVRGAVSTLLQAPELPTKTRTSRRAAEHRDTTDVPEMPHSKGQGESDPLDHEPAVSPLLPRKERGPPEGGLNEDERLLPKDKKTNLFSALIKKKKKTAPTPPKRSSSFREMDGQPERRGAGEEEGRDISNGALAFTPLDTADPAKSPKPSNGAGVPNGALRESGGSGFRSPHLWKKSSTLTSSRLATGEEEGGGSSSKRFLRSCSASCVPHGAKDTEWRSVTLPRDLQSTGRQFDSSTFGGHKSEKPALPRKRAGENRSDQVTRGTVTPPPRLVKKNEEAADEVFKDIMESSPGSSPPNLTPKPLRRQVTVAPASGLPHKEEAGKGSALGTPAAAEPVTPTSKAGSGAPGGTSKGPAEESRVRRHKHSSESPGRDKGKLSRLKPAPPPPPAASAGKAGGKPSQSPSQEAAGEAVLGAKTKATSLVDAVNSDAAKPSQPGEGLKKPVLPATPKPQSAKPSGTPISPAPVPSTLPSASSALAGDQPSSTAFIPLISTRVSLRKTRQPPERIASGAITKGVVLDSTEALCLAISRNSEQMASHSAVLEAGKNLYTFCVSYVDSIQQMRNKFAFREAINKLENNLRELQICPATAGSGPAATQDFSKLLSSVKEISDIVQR
# [8] = biological target: Myosin light chain kinase 2, skeletal/cardiac muscle (Homo sapiens) (UniProt Q9H1R3); assay: Selectivity interaction (KinomeScan (DiscoverX)) EUB0001049a MYLK2; conditions: at 1 µM
# Sequence of Myosin light chain kinase 2, skeletal/cardiac muscle (Homo sapiens) (Q9H1R3 whole entry): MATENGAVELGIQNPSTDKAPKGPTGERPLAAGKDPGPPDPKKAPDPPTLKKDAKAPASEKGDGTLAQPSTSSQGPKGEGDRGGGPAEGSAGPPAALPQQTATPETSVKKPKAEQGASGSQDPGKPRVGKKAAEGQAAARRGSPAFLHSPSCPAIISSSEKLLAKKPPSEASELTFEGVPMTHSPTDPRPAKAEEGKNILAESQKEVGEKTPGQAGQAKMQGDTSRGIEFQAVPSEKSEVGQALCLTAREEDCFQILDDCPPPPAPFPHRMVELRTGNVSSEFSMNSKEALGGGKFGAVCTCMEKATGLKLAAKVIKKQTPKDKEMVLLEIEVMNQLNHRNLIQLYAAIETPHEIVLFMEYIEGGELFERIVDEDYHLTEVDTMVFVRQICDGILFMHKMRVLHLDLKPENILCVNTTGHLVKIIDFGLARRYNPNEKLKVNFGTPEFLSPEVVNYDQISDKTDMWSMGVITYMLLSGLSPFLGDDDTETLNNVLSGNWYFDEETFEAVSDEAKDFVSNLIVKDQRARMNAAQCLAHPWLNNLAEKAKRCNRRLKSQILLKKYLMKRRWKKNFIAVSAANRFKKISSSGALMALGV
# [9] = biological target: Serine/threonine-protein kinase PAK 2 (Homo sapiens) (UniProt Q13177); assay: Selectivity interaction (KinomeScan (DiscoverX)) EUB0000595a PAK2; conditions: at 10 µM
# Sequence of Serine/threonine-protein kinase PAK 2 (Homo sapiens) (Q13177 whole entry): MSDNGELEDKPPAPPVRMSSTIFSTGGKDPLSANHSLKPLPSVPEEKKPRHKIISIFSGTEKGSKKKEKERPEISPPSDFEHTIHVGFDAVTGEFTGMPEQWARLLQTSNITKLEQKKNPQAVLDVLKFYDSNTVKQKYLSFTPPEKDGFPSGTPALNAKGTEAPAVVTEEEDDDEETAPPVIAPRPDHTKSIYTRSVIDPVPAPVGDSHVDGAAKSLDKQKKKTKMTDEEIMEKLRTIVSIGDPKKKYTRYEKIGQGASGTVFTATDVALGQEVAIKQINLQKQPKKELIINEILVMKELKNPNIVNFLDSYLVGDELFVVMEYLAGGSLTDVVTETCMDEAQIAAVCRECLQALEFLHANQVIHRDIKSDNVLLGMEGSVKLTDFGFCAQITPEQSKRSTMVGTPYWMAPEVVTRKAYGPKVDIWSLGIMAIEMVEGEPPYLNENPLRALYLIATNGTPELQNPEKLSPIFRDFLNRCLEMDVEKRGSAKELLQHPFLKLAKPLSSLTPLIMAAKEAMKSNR
# [10] = biological target: Dual specificity protein kinase CLK1 (Homo sapiens, UniProt P49759); assay: Selectivity interaction (KinomeScan (DiscoverX)) EUB0001619a CLK1; conditions: at 1 µM
# Sequence of Dual specificity protein kinase CLK1 (P49759 whole entry, looked up): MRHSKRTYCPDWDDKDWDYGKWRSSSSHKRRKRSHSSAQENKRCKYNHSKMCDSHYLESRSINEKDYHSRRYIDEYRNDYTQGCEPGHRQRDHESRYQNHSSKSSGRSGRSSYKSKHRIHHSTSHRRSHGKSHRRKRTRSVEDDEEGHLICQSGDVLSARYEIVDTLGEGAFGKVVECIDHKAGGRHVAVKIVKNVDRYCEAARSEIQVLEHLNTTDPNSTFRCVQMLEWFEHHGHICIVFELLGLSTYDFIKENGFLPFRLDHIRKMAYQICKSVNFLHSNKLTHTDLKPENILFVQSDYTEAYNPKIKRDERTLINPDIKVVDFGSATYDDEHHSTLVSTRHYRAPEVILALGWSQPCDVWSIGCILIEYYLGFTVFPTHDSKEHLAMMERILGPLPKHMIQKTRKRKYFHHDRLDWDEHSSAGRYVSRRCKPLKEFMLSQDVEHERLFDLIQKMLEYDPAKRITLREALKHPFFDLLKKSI
# [11] = biological target: RAC-beta serine/threonine-protein kinase (Homo sapiens) (UniProt P31751); assay: Selectivity interaction (KinomeScan (DiscoverX)) EUB0001619a AKT2; conditions: at 1 µM
# Sequence of RAC-beta serine/threonine-protein kinase (Homo sapiens) (P31751 whole entry): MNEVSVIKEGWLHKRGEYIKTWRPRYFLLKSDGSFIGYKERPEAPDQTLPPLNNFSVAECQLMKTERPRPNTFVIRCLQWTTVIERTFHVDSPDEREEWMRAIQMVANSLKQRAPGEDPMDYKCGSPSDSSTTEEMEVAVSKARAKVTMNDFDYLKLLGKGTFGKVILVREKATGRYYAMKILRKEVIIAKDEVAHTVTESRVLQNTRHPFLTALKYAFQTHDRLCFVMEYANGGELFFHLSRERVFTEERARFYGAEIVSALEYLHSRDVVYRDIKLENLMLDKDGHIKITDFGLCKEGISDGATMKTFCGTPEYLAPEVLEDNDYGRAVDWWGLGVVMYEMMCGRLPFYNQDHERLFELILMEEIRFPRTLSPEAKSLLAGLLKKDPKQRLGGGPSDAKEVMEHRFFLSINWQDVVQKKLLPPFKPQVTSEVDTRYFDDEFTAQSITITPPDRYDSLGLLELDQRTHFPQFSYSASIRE
smiles,measurement,setting,value
C=CC(=O)Nc1cccc(C(=O)Nc2ccc(Nc3cc(-c4[nH]c(SC)nc4C)ccn3)cc2)c1,% of control,[1]; at 1 µM,87%
same,% of control,[1]; at 5 µM,77%
Cc1cc([C@@H](C)Nc2ccccc2C(=O)O)c2nc(N3CCOCC3)cc(=O)n2c1 [AZD-6482],% of control,[2],89%
Cn1cc(-n2cnc3c(NCc4nc5cc(Cl)c(Cl)cc5[nH]4)nc(N4CCOCC4)nc32)cn1,% of control,[3],6.77%
CC[C@@H]1[C@H](F)C(=O)N[C@@H]1COc1nccc2cc(C(N)=O)c(OC)cc12 [ZIMLOVISERTIB],% of inhibition,[4]; at 0.01 µM,-12.1%
same,% of inhibition,[4]; at 0.04 µM,-3.2%
same,% of inhibition,[4]; at 0.2 µM,0%
same,% of inhibition,[4]; at 1 µM,-6.5%
same,% of inhibition,[4]; at 5 µM,-21.9%
same,% of inhibition,[5],11.6%
CNC(=O)Nc1ccc(-c2nc(N3CC4CCC(C3)O4)c3cnn(C4CCC5(CC4)OCCO5)c3n2)cc1,% of control,[6],99%
COc1cc(Nc2nc(C)cc(-c3cnn4nc(OC)ccc34)n2)cc(C(F)(F)F)c1,% of control,[7],67%
same,% of control,[8],100%
COCC(=O)NC/C=C/c1ccc2ncnc(Nc3ccc(Oc4ccc(C)nc4)c(C)c3)c2c1 [CP-724714],% of control,[9],87%
N#Cc1cccc(-c2c[nH]c3ncnc(N4CCOCC4)c23)c1,% of control,[10],63%
same,% of control,[11],100%
